In patent US20240302280A1, “PREPARATION METHOD AND APPLICATION OF VISCOSITY FLUORESCENT PROBE” (Zhengzhou University of Light Industry, priority 2023, published 2024):

Columns and labels:
[1] = Spectral response of the probe to solution viscosity (glycerol/MeOH); format: physicochemical; settings: viscosity increased from 1.4 cp to 955 cp by glycerol/MeOH volume ratio
Description: Therefore, it may be concluded that the fluorescence intensity of TzAr-Nap-OH may be used as a reliable indicator for a quantitative viscosity sensor.

[2] = Effect of solution pH on probe fluorescence in PBS/THF (4/1); format: physicochemical; settings: pH range 1.64 to 11.45
Procedure: 20 μL of the fluorescent probe stock solution were taken and added dropwise into a PBS/THF (4/1) system, resulting in a final volume of 2 mL.

[3] = Effect of interfering substances on probe fluorescence in PBS/THF (4/1); format: physicochemical; settings: 10 μM interfering substances
Procedure: 20 μL of the fluorescent probe stock solution were taken and added dropwise into the PBS/THF (4/1) system, into which 10 μM of other interfering substance solutions were added dropwise, resulint in a final volume is 2 mL. Other interfering substances had little effect on the fluorescence intensity of TzAr-Nap-OH.

HeLa cells [4] = assay: MTT cytotoxicity experiment; format: cell-based; settings: 0-20 μM probe, 24 hours
HeLa cells [5] = assay: Cell imaging of response to viscosity (monensin-treated cells); format: cell-based; settings: probe 10 μM, 30 min, λex=360 nm
Procedure: FIG. 9 is a fluorescence image of Hela cells; (a-c) HeLa cells were cultured with TzAr-Nap-OH (10 μM) for 30 minutes; (d-f) HeLa cells were treated with monensin (Mo) and incubated with the TzAr-Nap-OH probe for 30 minutes; λex=360 nm, slit=5 nm, scale bar=20 μm.
Images a-c were obtained by treating HeLa cells with TzAr-Nap-OH (10 μM) for 30 mins. HeLa cells were first treated with monensin to increase cell viscosity, and then treated with TzAr-Nap-OH (10 μM) to obtain images d-f.

- change of fluorescence intensity with pH [2]: did not change significantly
SMILES: Oc1ccc2cc(/C=C/c3nc(-c4ccccc4)nc(-c4ccccc4)n3)ccc2c1 [TzAr-Nap-OH]
- increase of fluorescence intensity at 520 nm [1]: ~15 times
- effect of other interfering substances on fluorescence intensity [3]: little effect
- survival rate (cell viability) (HeLa cells [4]): over 81%
- fluorescence intensity of monensin-treated cells versus normal cells (HeLa cells [5]): significantly higher
